{
  "source": "paper PMC10302187",
  "about": "“WssI from the Gram-negative bacterial cellulose synthase is an O-acetyltransferase that acts on cello-oligomers with several acetyl donor substrates” (The Journal of Biological Chemistry, 2023)",
  "key": {"PfWssI^ΔN": {"molecular_target": "T1, PfWssI^ΔN (Pseudomonas fluorescens, UniProt Q8RSY4)", "T1 sequence (Q8RSY4 92-374)": "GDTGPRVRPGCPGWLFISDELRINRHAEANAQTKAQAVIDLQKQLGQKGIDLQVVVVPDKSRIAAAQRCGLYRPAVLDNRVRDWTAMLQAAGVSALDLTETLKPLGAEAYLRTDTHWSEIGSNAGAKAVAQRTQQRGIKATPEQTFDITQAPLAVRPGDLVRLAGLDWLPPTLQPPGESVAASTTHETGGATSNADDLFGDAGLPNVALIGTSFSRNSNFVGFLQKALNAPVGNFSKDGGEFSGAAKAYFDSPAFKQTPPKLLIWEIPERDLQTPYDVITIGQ", "type": "biochemical", "conditions": "1 h incubation with reagent (1 mM PMSF, 5 mM MSF, 5 mM EDTA, 0.1 mM E-64, 20 μM Pepstatin A); 6 mM pNP-Ac, pH 7", "description": "(§1) The enzymatic rate of the WssI^ΔN proteins was measured using chromogenic assays in a 50 mM sodium phosphate-buffered (pH 7) solution, with WssI^ΔN (3 μM unless specified otherwise) and were initiated by the addition of pNP-Ac to a final concentration of 6 mM (dissolved in 5% [v/v] ethanol). Assay samples and corresponding controls (i.e., containing no WssI^ΔN and/or substrate) were run in quadruplicate, and the progress of the reaction was monitored at 405 nm (Cytation5) for 30 min in 1 min intervals following a 5 s initial linear shake to mix contents thoroughly. These conditions were deemed standard assay conditions for subsequent trials except where modifications are noted. The activity assay to determine optimal pH and buffer type was performed with 2-(N-morpholino)ethanesulfonic acid over pH ranges of 5.5 to 6.5, sodium phosphate for pH 6.5 to 7.5, and Tris for the final range of 7.5 to 9.25. In addition, standard assay conditions were modified by incorporating various inhibitors and common reducing agents to determine effects on WssI^ΔN activity. […] To test the effects of the absence of DTT, trials were conducted where DTT was removed from all purification and dialysis buffers, unless mentioned otherwise. Data are either reported in specific activity as units of esterase activity (i.e., the amount of enzyme required to release 1 μmol of p-nitrophenol per min^−1 per mg of protein^−1) or as percent residual activity when compared with the WssI^ΔN controls (i.e., containing no inhibitors)."}, "AiWssI^ΔN [1]": {"molecular_target": "T2, AiWssI^ΔN (Achromobacter insuavis, UniProt A0A6J5I893)", "T2 sequence (A0A6J5I893 entry or part of it, stated change not applied)": "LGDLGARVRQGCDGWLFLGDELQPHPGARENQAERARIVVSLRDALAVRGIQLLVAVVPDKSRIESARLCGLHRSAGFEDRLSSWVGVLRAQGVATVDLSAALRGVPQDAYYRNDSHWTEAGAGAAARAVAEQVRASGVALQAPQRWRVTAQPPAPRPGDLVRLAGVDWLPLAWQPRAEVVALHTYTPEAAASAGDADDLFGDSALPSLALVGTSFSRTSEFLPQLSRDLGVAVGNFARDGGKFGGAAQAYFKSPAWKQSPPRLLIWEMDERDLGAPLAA", "type": "biochemical", "conditions": "1 h incubation with reagent (1 mM PMSF, 5 mM MSF, 5 mM EDTA, 0.1 mM E-64, 20 μM Pepstatin A); 6 mM pNP-Ac, pH 7", "description": "as §1"}, "[2]": {"molecular_target": "serine/threonine phosphatase calcineurin", "set-up": "method as in PMID 9763224", "conditions": "p-nitrophenyl phosphate as a substrate; cited from earlier work"}, "AiWssI^ΔN [3]": {"molecular_target": "T2, AiWssI^ΔN", "assay": "HTS MU-Ac fluorescence esterase dose-response assay", "type": "biochemical", "conditions": "MU-Ac as esterase substrate", "description": "Large-scale HTS was conducted at the SPARC BioCentre Drug Discovery (Hospital for Sick Children, Toronto, Canada) with a subset of the Chembridge DIVERset library collection (as well as 135 manually selected compounds based on success against other SGNH enzymes) in a 384-well format. The assay was performed in singlet during the primary screen of the entire compound list and in triplicate for a follow-up confirmatory screen. Reaction setups for both screens were conducted with 50 mM sodium phosphate buffer (pH 6.5), 3 μM AiWssI^ΔN and 0.5 mM MU-Ac (final concentration of 5% [v/v] dimethyl sulfoxide) using a Thermo MultiDrop Combi Reagent Dispenser. The reaction was initiated by the addition of 20 μM of the test compounds using an Echo 550 acoustic dispenser (Labcyte). Fluorescence was monitored with a SynergyNeo microplate reader (BioTek) using excitation and emission wavelengths of 365 and 450 nm, respectively, for approximately 45 min alongside appropriate negative and positive controls. […] The hits remaining after the primary and confirmatory screening were examined further to identify possible PAINS, which could result in false-positive results ([91]). Further refinement of the lead candidates was also conducted by assessing the fluorescence quenching potential of lead compound hits by assaying the quenching potential of different compound concentrations (10.1 μM and/or 50.5 μM) against the fluorescence of 4-methylumbeliferone (247 μM) to reveal any potential false positives that were not actually because of AiWssI^ΔN activity. All fluorescence readings were normalized using the following equation to determine the percentage of quenching ([92]): NormalizedFlouresence=Fobs−μFmin/μFmax−μFminx100% In the aforementioned formula, Fobs is the sample fluorescence value, μFmin is the mean fluorescence value of the negative controls, and μFmax is the mean fluorescence value of the positive controls.\n(§2) All inhibitor compounds for confirmatory assays were purchased from Enamine Ltd, with the exception of compound 1 (Santa Cruz Biotechnology, Inc), Compounds 2 and 7 (Molport via Maybridge Ltd and Vitas M Chemical Ltd, respectively) and compound 6 (Mcule, Inc). The dose–response curves were generated using either CDD Vault Analysis Software (Collaborative Drug Discovery, Inc) or GraphPad Prism, version 8.4.3. Inhibition constants (Ki) were calculated using the Cheng–Prusoff equation for competitive inhibition that is calculated using the KM of the uninhibited enzyme, the substrate concentration (S) at which the IC50 values were calculated, and the IC50 value of the inhibitor ([92]): Ki=IC50/(S/KM+1)"}, "AiWssI^ΔN [4]": {"molecular_target": "T2, AiWssI^ΔN", "assay": "Follow-up standard MU-Ac esterase assay (dose-response)", "type": "biochemical", "description": "The fluorescence substrate, MU-Ac, was also tested as a substrate of WssI^ΔN for its amenability to the planned high-throughput analyses (see later). Reaction setups were exactly the same as that for pNP-Ac, with the exceptions of the assay buffer (50 mM sodium phosphate, 150 mM NaCl, 1 mM DTT, pH 7), MU-Ac as the acetyl donor (final concentration of 0.5 mM along with 5% [v/v] dimethyl sulfoxide, as this was the solvent for MU-Ac), and the assay was performed in fluorescence compatible microplates (Grenier BioOne) and monitored with excitation and emission wavelengths of 365 and 450 nm, respectively for 60 min.\nas §2"}},
  "data": [
    {"smiles": "CS(=O)(=O)F", "note": "[MSF, methanesulfonyl fluoride]", "values": [
      {"measurement": "Residual activity PfWssI^ΔN", "setting": "PfWssI^ΔN", "result": "112.1 ± 4.4", "unit": "%"},
      {"measurement": "Residual activity AiWssI^ΔN", "setting": "AiWssI^ΔN [1]", "result": "95.0 ± 6.2", "unit": "%"}
    ]},
    {"smiles": "CC(C)C[C@H](NC(=O)[C@H]1O[C@@H]1C(=O)O)C(=O)NCCCCN=C(N)N", "note": "[E-64]", "values": [
      {"measurement": "Residual activity PfWssI^ΔN", "setting": "PfWssI^ΔN", "result": "107.8 ± 10.8", "unit": "%"},
      {"measurement": "Residual activity AiWssI^ΔN", "setting": "AiWssI^ΔN [1]", "result": "130.8 ± 9.1", "unit": "%"}
    ]},
    {"smiles": "N#CC(C#N)=C(N)/C(C#N)=C/c1ccc(O)cc1", "note": "[Compound 1, (3Z)-2-Amino-3-[(4-hydroxyphenyl)-methylidene]prop-1-ene-1,1,3-tricarbonitrile]", "values": [
      {"measurement": "IC50", "setting": "[2]", "result": 30, "unit": "µM"},
      {"measurement": "IC50", "setting": "AiWssI^ΔN [3]", "result": 10.1, "unit": "µM"},
      {"measurement": "IC50", "setting": "AiWssI^ΔN [4]; MU-Ac (0.5 mM) as esterase substrate, read-out: Second MU-Ac IC50", "result": 28.4, "unit": "µM"},
      {"measurement": "Ki", "setting": "AiWssI^ΔN [4]; MU-Ac as esterase substrate, Cheng-Prusoff, competitive inhibition, read-out: Second MU-Ac Ki", "result": 15.1, "unit": "µM"}
    ]}
  ]
}
